Data on 22 compounds can be found in publication PMC5927774, “Isoxazol-5(2H)-one: a new scaffold for potent human neutrophil elastase (HNE) inhibitors” (Journal of Enzyme Inhibition and Medicinal Chemistry, 2017).

Data set [1] has as its target T1, HNE (human neutrophil elastase) (Homo sapiens, UniProt P08246).
T1 construct: purchased Calbiochem, La Jolla, CA
T1 sequence (P08246 30-267): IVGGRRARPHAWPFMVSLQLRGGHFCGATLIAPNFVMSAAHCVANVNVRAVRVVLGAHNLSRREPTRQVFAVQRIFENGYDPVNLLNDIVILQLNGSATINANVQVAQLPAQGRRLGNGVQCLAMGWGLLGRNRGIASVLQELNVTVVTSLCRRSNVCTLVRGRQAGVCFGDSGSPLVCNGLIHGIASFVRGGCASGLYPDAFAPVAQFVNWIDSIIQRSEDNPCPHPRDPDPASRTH
Kind of data set: HNE inhibition assay (fluorogenic substrate). It is filed as biochemical. The conditions noted are these: for IC50: Table 1, mean ± SD of three independent experiments, NA = no inhibitory activity at the highest concentration tested (50 μM).
Description: HNE inhibition assay. Compounds were dissolved in 100% DMSO at 5 mM stock concentrations. The final concentration of DMSO in the reactions was 1%, and this level of DMSO had no effect on enzyme activity. The HNE inhibition assay was performed in black flat-bottom 96-well microtiter plates. Briefly, a buffer solution containing 200 mM Tris–HCl, pH 7.5, 0.01% bovine serum albumin, 0.05% Tween-20, and 20 mU/ml of HNE (Calbiochem, La Jolla, CA) was added to wells containing different concentrations of each compound. The reaction was initiated by addition of 25 μM elastase substrate (N-methylsuccinyl-Ala-Ala-Pro-Val-7-amino-4-methylcoumarin, Calbiochem) in a final reaction volume of 100 μL/well. Kinetic measurements were obtained every 30 s for 10 min at 25 °C using a Fluoroskan Ascent FL fluorescence microplate reader (Thermo Electron, Waltham, MA) with excitation and emission wavelengths at 355 and 460 nm, respectively. For all compounds tested, the concentration of inhibitor that caused 50% inhibition of the enzymatic reaction (IC50) was calculated by plotting % inhibition versus logarithm of inhibitor concentration (at least six points). The data are presented as the mean values of at least three independent experiments with relative standard deviations of <15%.

The nature of data set [2]: Spontaneous hydrolysis (chemical stability) in aqueous buffer. It is filed as physicochemical. The conditions noted are these: 25 °C, 0.05 M phosphate buffer, pH 7.3; read-out: t1/2 (h) Spontaneous hydrolysis (converted). How it is done: (§1) Spontaneous hydrolysis of selected derivatives was evaluated at 25 °C in 0.05 M phosphate buffer, pH 7.3. Kinetics of hydrolysis were monitored by measuring changes in absorbance spectra over time using a SpectraMax Plus microplate spectrophotometer (Molecular Devices, Sunnyvale, CA). Absorbance (At) at the characteristic absorption maxima of each compound was measured at the indicated times until no further absorbance decreases occurred (A∞)[30]. Using these measurements, we created semilogarithmic plots of log(At – A∞) versus time, and k′ values were determined from the slopes of these plots. Half-conversion times were calculated using t1/2=0.693/k′, as described previously.

Data set [3] addresses T2, HNE (Homo sapiens, UniProt P08246).
T2 construct: purchased Calbiochem, La Jolla, CA
T2 sequence (P08246 30-267): T1 sequence (P08246 30-267)
Description: Reversibility of the HNE-inhibitor complex over time (kinetic curves). The class given is biochemical. The conditions noted are these: compound at 5 μM. How it is done:
(§2) However, inhibition by compound 2s was reversed after 10 min. […] To better understand the mechanism of action of this isoxazolone HNE inhibitor, we performed additional kinetic experiments.
Figure 6. Evaluation of HNE inhibition by selected isoxazolone derivatives. HNE was incubated with the indicated compounds at 5 μM concentrations, and kinetic curves monitoring substrate cleavage catalysed by HNE are shown. Representative curves are from three independent experiments.

The target in data set [4] is T2, HNE. Description: Compound hydrolysis in the presence of HNE. The class given is biochemical. The conditions noted are these: for half-life: human, phosphate buffer supplemented with HNE (400 mU/ml), pH 7.3, 400 mU/ml HNE, read-out: t1/2 (h) In the presence HNE (converted). As to the method:
as §1
In the presence of 400 mU/ml HNE, the hydrolysis was 2.2–4.8-fold higher than for spontaneous hydrolysis (i.e. without HNE) (Table 3).
Figure 5. Analysis of compound 2i spontaneous hydrolysis. Compound 2i (80 μM) was incubated in 0.05 M phosphate buffer ([…], 25 °C) supplemented with […] HNE, as indicated. Spontaneous hydrolysis was monitored by measuring changes in absorbance at 275 nm (absorption maximum of compound 2i) over time. The data are presented as the mean ± SD of triplicate samples from one experiment, which is representative of two independent experiments.

In data set [5] the target is T2, HNE. Description: Lineweaver-Burk analysis of HNE inhibition. The class given is biochemical. The conditions noted are these: double-reciprocal Lineweaver-Burk plot. As to the method: as §2
Figure 7. Kinetics of HNE inhibition by compound 2o. Representative double-reciprocal Lineweaver–Burk plot from three independent experiments.

Usually IC50 stands for the concentration needed to halve the response being measured. Low values mean greater potency, high ones weaker potency. The compound `Cc1c(C)n(C(=O)C2CC2)oc1=O` [Compound 2a, 2-(Cyclopropanecarbonyl)-3,4-dimethylisoxazol-5(2H)-one] showed an IC50 in data set [1] of 120 ± 23 nM.

Turning to `Cc1cccc(C(=O)n2oc(=O)c(C)c2C)c1` [Compound 2b, 3,4-Dimethyl-2-(3-methylbenzoyl)isoxazol-5(2H)-one], the IC50 in data set [1] was determined as 10900 ± 1200 nM.

With `CCc1c(C)n(C(=O)C2CC2)oc1=O` [Compound 2c, 2-(Cyclopropanecarbonyl)-4-ethyl-3-methylisoxazol-5(2H)-one], it took 130 ± 25 nM to reach half-maximal inhibition in data set [1] (IC50).

As to `CCc1c(C)n(C(=O)c2cccc(C)c2)oc1=O` [Compound 2d, 4-Ethyl-3-methyl-2-(3-methylbenzoyl)isoxazol-5(2H)-one], the results for the half-life in data set [2] and in data set [4] were 7.7 h and 3.5 h, respectively. Besides, the IC50 in data set [1] was 94 ± 23 nM. Moreover, the “time during which HNE inhibition was maximal” value in data set [3] is on record as 30 min.

`CCc1c(C)c(=O)on1C(=O)C1CC1` [Compound 2e, 2-(Cyclopropanecarbonyl)-3-ethyl-4-methylisoxazol-5(2H)-one] displayed an IC50 in data set [1] of 2200 ± 280 nM.

Regarding `CCc1c(C)c(=O)on1C(=O)c1cccc(C)c1` [Compound 2f, 3-Ethyl-4-methyl-2-(3-methylbenzoyl)isoxazol-5(2H)-one], half-maximal inhibition in data set [1] (IC50) was put at 1800 ± 320 nM.

Turning to `CCOC(=O)c1c(C)c(=O)on1C(=O)C1CC1` [Compound 2g, Ethyl 2-(cyclopropanecarbonyl)-4-methyl-5-oxo-2,5-dihydroisoxazole-3-carboxylate], in data set [1], 440 ± 140 nM corresponded to half-maximal inhibition (IC50).

Take `CCOC(=O)c1c(C)c(=O)on1C(=O)c1cccc(C)c1` [Compound 2h, Ethyl 4-methyl-2-(3-methylbenzoyl)-5-oxo-2,5-dihydroisoxazole-3-carboxylate]: the midpoint of inhibition in data set [1], the IC50, lay at 39700 ± 5100 nM.

`CCc1cc(=O)on1C(=O)C1CC1` [Compound 2i, 2-(Cyclopropanecarbonyl)-3-ethylisoxazol-5(2H)-one]: the half-life was 19.3 h in data set [2] and 4 h in data set [4]. For the same compound, the IC50 in data set [1] is 96 ± 22 nM. Also, the “time during which HNE inhibition was maximal” value in data set [3] came to 30 min. Also, the “hydrolysis with increasing HNE concentration (in words)” value in data set [4] (80 μM compound, 0.05 M phosphate buffer pH 7.5, 25 °C, 0, 50, 200, 400 μg/ml HNE, absorbance at 275 nm) was “dose-dependent hydrolysis”.

By melting point is commonly meant the temperature of the solid-liquid transition. As to `CCc1cc(=O)on1C(=O)c1cccc(C)c1` [Compound 2j, 3-Ethyl-2-(3-methylbenzoyl)isoxazol-5(2H)-one], the melting point fell in the range of 81 to 84 °C. Also, the half-life in data set [2] was 5.3 h. The “fold higher inhibitory activity with respect to the corresponding 4-methyl derivative” value in data set [1] (2i vs 2e, 2j vs 2f) is given as 42 fold. The compound also displayed an IC50 in data set [1] of 43 ± 11 nM. Moreover, in data set [3], the “time during which HNE inhibition was maximal” value is listed as 30 min. Moreover, in data set [4], the half-life is 2.1 h.

Regarding `CCC(=O)n1oc(=O)cc1C(C)C` [Compound 2k, 3-Isopropyl-2-propionylisoxazol-5(2H)-one], the melting point was 92 to 95 °C. For the same compound, the IC50 in data set [1] was 1100 ± 140 nM.

For `CC(C)c1cc(=O)on1C(=O)C1CC1` [Compound 2l, 2-(Cyclopropanecarbonyl)-3-isopropylisoxazol-5(2H)-one], the half-life in data set [2] was 19.3 h; in data set [4] it was 4.3 h. In data set [1], this compound had an IC50 of 34 ± 9 nM. Further, the “time during which HNE inhibition was maximal” value in data set [3] amounted to 30 min.

With `CC(C)c1cc(=O)on1C(=O)C1CCCC1` [Compound 2m, 2-(Cyclopentanecarbonyl)-3-isopropylisoxazol-5(2H)-one], the IC50 in data set [1] turned out to be 560 ± 150 nM.

On to `Cc1cccc(C(=O)n2oc(=O)cc2C(C)C)c1` [Compound 2n, 3-Isopropyl-2-(3-methylbenzoyl)isoxazol-5(2H)-one], for which the half-life in data set [2] was 6.2 h; in data set [4], 2.6 h. This compound registered an IC50 in data set [1] of 42 ± 11 nM. For the same compound, the “time during which HNE inhibition was maximal” value in data set [3] is on record as 30 min.

`Cc1ccc(C(=O)n2oc(=O)cc2C(C)C)cc1` [Compound 2o, 3-Isopropyl-2-(4-methylbenzoyl)isoxazol-5(2H)-one] had a melting point of 77 to 79 °C. In addition, in data set [2], the half-life was 8.9 h. In data set [1], inhibition was half-maximal at 20 ± 7 nM (IC50). In data set [3], the “time after which HNE inhibition was reversed” value is recorded as 2 h. The “mechanism of HNE inhibition (in words)” value in data set [5] was “competitive HNE inhibitor”. Besides, the half-life in data set [4] is 3.4 h.

The compound `CC(C)c1cc(=O)on1C(=O)c1cccc(C#N)c1` [Compound 2p, 3-(3-Isopropyl-5-oxo-2,5-dihydroisoxazole-2-carbonyl)benzonitrile] showed an IC50 in data set [1] of 6500 ± 1700 nM.

Turning to `CC(C)c1cc(=O)on1C(=O)c1ccc(C#N)cc1` [Compound 2q, 4-(3-Isopropyl-5-oxo-2,5-dihydroisoxazole-2-carbonyl)benzonitrile], the melting point was 113 to 115 °C. This compound also gave an IC50 in data set [1] of 18200 ± 2500 nM.

In the case of `CC(C)c1cc(=O)on1C(=O)c1cccc(C(F)(F)F)c1` [Compound 2r, 3-Isopropyl-2-(3-(trifluoromethyl)benzoyl)isoxazol-5(2H)-one], 1200 ± 220 nM corresponded to half-maximal inhibition in data set [1] (IC50).

`CC(C)c1cc(=O)on1C(=O)c1ccc(C(F)(F)F)cc1` [Compound 2s, 3-Isopropyl-2-(4-(trifluoromethyl)benzoyl)isoxazol-5(2H)-one]: the half-life in data set [2] was 3.1 h; in data set [4], 0.9 h. Further, the IC50 in data set [1] was found to be 34 ± 12 nM. Moreover, the “time after which HNE inhibition was reversed” value in data set [3] turned out to be 0.167 h.

Compound `CC(C)c1cc(=S)on1C(=O)C1CC1` [Compound 3a, Cyclopropyl-(3-isopropyl-5-thioxoisoxazol-2(5H)-yl)methanone] gave an IC50 in data set [1] of 2100 ± 310 nM.

Regarding `Cc1cccc(C(=O)n2oc(=S)cc2C(C)C)c1` [Compound 3b, (3-Isopropyl-5-thioxoisoxazol-2(5H)-yl)-(m-tolyl)methanone], the “HNE inhibitory activity (in words)” value in data set [1] is given as “inactivity”.

Compound `Cc1cccc(Cn2oc(=O)c(C)c2C)c1` [Compound 4a, 3,4-Dimethyl-2-(3-methylbenzyl)isoxazol-5(2H)-one] displayed a melting point of 80 to 83 °C.
